What is called GI50 is the concentration giving 50% growth inhibition.

Here are results for eleven compounds from ChEMBL document CHEMBL1201862, “PubChem BioAssay data set” (2004).

Molecules are shown by their SMILES.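 The compound was tested at five concentrations on cells cultured in 96-well plates, with a 48-hour exposure period. GI50 = concentration required for 50% inhibition of growth.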 Activity calls are given as the source filed them. No stated cut-off is given here; in the data, active = GI50 up to about 1.1 µM and inactive = higher.

Among the test systems are EKVX; MDA-N; SNB-19; SF-268; SF-539; SN12C; T47D; HOP-62; OVCAR-5; U-251; MDA-MB-435; RXF 393; MOLT-4; CAKI-1; OVCAR-3; K562; SK-OV-3; UACC-257; UO-31; BT-549.
What all share (assay): DTP human tumour cell line panel, 48 h

For the compound `O=C(Sc1c(-c2ccccc2)c(=O)n(-c2ccccc2)c(=S)n1-c1ccccc1)c1ccc(Cl)cc1`, the GI50 with EKVX, in the assay with MDA-N, in the assay with SNB-19, in the assay on SF-268, in the assay with SF-539 and in the assay on SN12C was > 100 µM (inactive) throughout. Further, the GI50 with T47D was 71 µM (inactive); in the assay with HOP-62, > 100 µM (inactive); in the assay with OVCAR-5 it was > 100 µM (inactive); in the assay with U-251, > 100 µM (inactive); in the assay with MDA-MB-435, > 100 µM (inactive); with RXF 393, > 100 µM (inactive). For the same compound, the GI50 was 49.3 µM (inactive) in the assay on MOLT-4; > 100 µM (inactive) in the assay on CAKI-1; > 100 µM (inactive) in the assay with OVCAR-3; 75 µM (inactive) in the assay with K562; > 100 µM (inactive) with SK-OV-3; > 100 µM (inactive) in the assay on UACC-257.

For `CC(C)CNCCc1ccccn1`, the GI50 with EKVX, with MDA-N, in the assay on SNB-19, in the assay with SF-268, with SN12C and in the assay with UO-31 was > 100 µM (inactive) in each case. Further, the GI50 with BT-549, in the assay on HOP-62, in the assay on OVCAR-5, with U-251, in the assay on MDA-MB-435 and in the assay with RXF 393 was > 100 µM (inactive) in each case. The GI50 with CAKI-1, with OVCAR-3, in the assay with SK-OV-3 and in the assay on UACC-257 was > 100 µM (inactive) each time.

As to `Cc1ccc(C(=O)N/N=C(\N=N\c2ccccc2C(=O)O)c2ccc(N(C)C)cc2)cc1`, the GI50 is 75.2 µM (inactive) in the assay with EKVX; 19 µM (inactive) in the assay with MDA-N; 55.3 µM (inactive) with SNB-19; > 100 µM (inactive) in the assay on SF-268; > 100 µM (inactive) with SF-539; > 100 µM (inactive) in the assay on SN12C. Also, the GI50 in the assay with UO-31 is 80.4 µM (inactive); with BT-549, > 100 µM (inactive); in the assay with OVCAR-5, > 100 µM (inactive); in the assay on U-251, > 100 µM (inactive); in the assay on MDA-MB-435, 22.9 µM (inactive); with MOLT-4, 71.4 µM (inactive). Also, the GI50 in the assay with CAKI-1 is > 100 µM (inactive); with OVCAR-3, 22.2 µM (inactive); in the assay on K562 it was 35.8 µM (inactive); in the assay with UACC-257 it was > 100 µM (inactive).

As to `Cc1nc2c(nc1C)-c1[nH]c3c(c1C(=O)C2=O)CCCC3=O`, the GI50 in the assay on EKVX is 1.48 µM (inactive); with MDA-N, 0.685 µM (active); in the assay on SNB-19, 2.33 µM (inactive); in the assay with SF-268, 1.47 µM (inactive); with SF-539 it was 1.68 µM (inactive); in the assay on SN12C, 1.77 µM (inactive). In addition, the GI50 with UO-31 is 4.02 µM (inactive); with T47D, 0.592 µM (active); with HOP-62, 2.32 µM (inactive); in the assay with OVCAR-5, 2.18 µM (inactive); in the assay on U-251 it was 1.34 µM (inactive); in the assay on MDA-MB-435 it was 0.483 µM (active). Besides, the concentration for 50% growth inhibition (GI50) in the assay on RXF 393 is 0.516 µM (active); in the assay on MOLT-4 it was 2.23 µM (inactive); in the assay with K562 it was 2.03 µM (inactive); in the assay with SK-OV-3 it was 2.4 µM (inactive); with UACC-257 it was 2.02 µM (inactive).

Take `C=C(C)[C@@H]1CCC2=C[C@H](C/C(C)=C\C3=CC(C)=C(O3)[C@H]1O)OC2=O`: the GI50 was > 100 µM (inactive) in the assay on EKVX; > 100 µM (inactive) in the assay with SNB-19; > 100 µM (inactive) with SF-268; 48.5 µM (inactive) in the assay with SF-539; 71.8 µM (inactive) with SN12C; > 100 µM (inactive) with UO-31. Also, the GI50 is > 100 µM (inactive) in the assay with BT-549; 41.9 µM (inactive) in the assay with T47D; > 100 µM (inactive) in the assay with OVCAR-5; 49.8 µM (inactive) in the assay with U-251; > 100 µM (inactive) with MDA-MB-435; 35.6 µM (inactive) with RXF 393. The GI50 in the assay on MOLT-4, in the assay on CAKI-1, in the assay on OVCAR-3, in the assay with K562 and in the assay with UACC-257 was > 100 µM (inactive) each time.

For `CCC(c1ccc(OC)cc1)C1NC(=S)NC1=O` (configuration not stated), the GI50 in the assay with EKVX is 34.2 µM (inactive); with MDA-N, > 50 µM (inactive); in the assay on SNB-19, > 50 µM (inactive); in the assay on SF-268, > 50 µM (inactive); in the assay with SF-539, > 50 µM (inactive); with SN12C, > 50 µM (inactive). The GI50 in the assay on UO-31, in the assay with T47D, with HOP-62, with OVCAR-5, in the assay on U-251 and in the assay with MDA-MB-435 was > 50 µM (inactive) in each case. In addition, the GI50 is > 50 µM (inactive) with RXF 393; 35.5 µM (inactive) in the assay with MOLT-4; > 50 µM (inactive) in the assay on CAKI-1; > 50 µM (inactive) in the assay with OVCAR-3; 17.5 µM (inactive) in the assay with K562; > 50 µM (inactive) in the assay on SK-OV-3. Moreover, in the assay with UACC-257, the GI50 was > 50 µM (inactive).

Take `COc1cc(Br)c(CC2C3=C(CCN2C(=O)C2CCC2)CC(=O)CC3)cc1O` (configuration not stated): the GI50 is 30.2 µM (inactive) in the assay with EKVX; 19.6 µM (inactive) with MDA-N; 51.2 µM (inactive) with SNB-19; 31.3 µM (inactive) in the assay on SF-268; 46.2 µM (inactive) in the assay on SF-539; 51.3 µM (inactive) in the assay with SN12C. Further, the GI50 with UO-31 is 55.6 µM (inactive); with T47D, 26.2 µM (inactive); in the assay with HOP-62, 44.2 µM (inactive); with OVCAR-5, > 100 µM (inactive); with U-251, 42.7 µM (inactive); in the assay on MDA-MB-435, 17.1 µM (inactive). Further, the GI50 in the assay with MOLT-4 is 26.1 µM (inactive); in the assay with OVCAR-3, 23.6 µM (inactive); in the assay with K562, 21.6 µM (inactive); in the assay with SK-OV-3, 56.9 µM (inactive); in the assay with UACC-257, 27.9 µM (inactive).

For the compound `COc1ccc(C(OC(C)=O)C2C(=C(C#N)C#N)c3ccccc3C2=C(C#N)C#N)cc1` (configuration not stated), the GI50 in the assay with EKVX was 39.4 µM (inactive); in the assay on MDA-N, 42.1 µM (inactive); in the assay on SF-268, 35.6 µM (inactive); in the assay with SF-539 it was 20.6 µM (inactive); in the assay on UO-31, 28 µM (inactive); with T47D, 70 µM (inactive). Further, the GI50 with HOP-62 was 20.8 µM (inactive); in the assay with OVCAR-5 it was 17.2 µM (inactive); in the assay on U-251, 41.9 µM (inactive); in the assay on MDA-MB-435, 36.7 µM (inactive); in the assay on RXF 393 it was 67.9 µM (inactive); with MOLT-4, 25.9 µM (inactive). Also, the GI50 with CAKI-1 is 39.6 µM (inactive); with OVCAR-3 it was 21.6 µM (inactive); in the assay with K562, 30.1 µM (inactive); in the assay with SK-OV-3, 18.6 µM (inactive); with UACC-257 it was > 100 µM (inactive).

With `Cc1ccc(C2NC(=O)c3ccccc3N2)c(C)c1` (configuration not stated), the GI50 with EKVX is 8.17 µM (inactive); in the assay with MDA-N, 0.174 µM (active); in the assay on SNB-19, 3.96 µM (inactive); in the assay on SF-268, 10.2 µM (inactive); in the assay with SF-539, 1.61 µM (inactive); in the assay with SN12C it was 6.9 µM (inactive). In addition, the GI50 with UO-31 is 6.81 µM (inactive); with T47D, 6.01 µM (inactive); in the assay with HOP-62, 5.13 µM (inactive); with OVCAR-5, 8.43 µM (inactive); in the assay with U-251, 2.59 µM (inactive); in the assay on MDA-MB-435, 0.191 µM (active). Also, the GI50 with RXF 393 was 3.91 µM (inactive); with MOLT-4, 0.736 µM (active); in the assay on CAKI-1 it was 2.56 µM (inactive); in the assay on OVCAR-3, 1.16 µM (inactive); in the assay on K562, 0.378 µM (active); in the assay on SK-OV-3, 2.22 µM (inactive). In addition, the GI50 in the assay with UACC-257 was 6 µM (inactive).

`Clc1ccc(-c2c3nc(c(-c4ccc(Cl)cc4)c4ccc([nH]4)c(-c4ccc(Cl)cc4)c4nc(c(-c5ccc(Cl)cc5)c5ccc2[nH]5)C=C4)C=C3)cc1`: the GI50 in the assay on EKVX, in the assay with SNB-19, in the assay on SF-268, in the assay on SF-539, with SN12C and in the assay with UO-31 was > 100 µM (inactive) each time. In addition, the GI50 in the assay with BT-549, in the assay on T47D, in the assay with HOP-62, in the assay with OVCAR-5, in the assay with U-251 and in the assay on MDA-MB-435 was > 100 µM (inactive) each time. Besides, the GI50 in the assay on MOLT-4, with CAKI-1, in the assay on OVCAR-3, with K562, in the assay with SK-OV-3 and with UACC-257 was > 100 µM (inactive) throughout.

Consider `O=C1/C(=C/c2cccc(Br)c2)CCc2ccccc21`, for which the GI50 is 17.6 µM (inactive) with EKVX; 10.8 µM (inactive) in the assay on MDA-N; 14.7 µM (inactive) in the assay on SNB-19; 6.76 µM (inactive) in the assay on SF-268; 17.5 µM (inactive) with SF-539; 15.4 µM (inactive) with SN12C. Further, the GI50 with UO-31 was 13.8 µM (inactive); with BT-549, 9.53 µM (inactive); with HOP-62 it was 16 µM (inactive); in the assay on OVCAR-5, 14.9 µM (inactive); in the assay with U-251, 14.6 µM (inactive); in the assay with MDA-MB-435, 12.4 µM (inactive). The GI50 with MOLT-4 was 10.2 µM (inactive); in the assay with CAKI-1, 16 µM (inactive); in the assay with OVCAR-3 it was 15.2 µM (inactive); with K562, 6.65 µM (inactive); in the assay on SK-OV-3, 22.8 µM (inactive); in the assay on UACC-257 it was 14.8 µM (inactive).
